Legend:
Assay in all cases: combination Emax (second highest fraction inhibited in the dose matrix, 72 h); higher = more inhibition; extreme values may be limits of the assay
[1] = test system: IA-LM (Non-Small Cell Lung Carcinoma)
Outline: (§1)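 After 24 hours at 37°C and 5% CO2 in 1536-well plates, cells in DMEM/F12 or RPMI plus 10% FBS received two-drug dose matrices for 72 hours. Viability came from CellTiter-Glo 2.0 luminescence and was scaled as inhibition, anchored at 0 by vehicle wells and at 1 by blank wells. Combination Emax is taken as the second-highest inhibition in the matrix, and Bliss excess as the observed combination effect less EA + EB − EA·EB, with EA and EB the single-agent effects.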

[2] = test system: KP-4 (Pancreatic Carcinoma)
Outline: as §1

[3] = test system: SAT (Head and Neck Carcinoma)
Outline: as §1

[4] = test system: COR-L88 (Small Cell Lung Carcinoma)
Outline: as §1

[5] = test system: BxPC-3 (Pancreatic Carcinoma)
Outline: as §1

[6] = test system: HT-1080 (Other Solid Carcinomas)
Outline: as §1

[7] = test system: NCI-H3118 (Head and Neck Carcinoma)
Outline: as §1

AM-38 (Glioblastoma) = test system: AM-38 (Glioblastoma)
Outline: as §1

[8] = test system: OVCAR-3 (Ovarian Carcinoma)
Outline: as §1

[9] = test system: CPC-N (Small Cell Lung Carcinoma)
Outline: as §1

SK-N-SH (Neuroblastoma) = test system: SK-N-SH (Neuroblastoma)
Outline: as §1

[10] = test system: LS-1034 (Colorectal Carcinoma)
Outline: as §1

[11] = test system: SNU-C2B (Colorectal Carcinoma)
Outline: as §1

[12] = test system: BHT-101 (Thyroid Gland Carcinoma)
Outline: as §1

UACC-257 (Melanoma) = test system: UACC-257 (Melanoma)
Outline: as §1

[13] = test system: LCLC-103H (Non-Small Cell Lung Carcinoma)
Outline: as §1

[14] = test system: C-33-A (Cervical Carcinoma)
Outline: as §1

[15] = test system: MOLP-8 (Plasma Cell Myeloma)
Outline: as §1

NCI-H226 (Mesothelioma) = test system: NCI-H226 (Mesothelioma)
Outline: as §1

[16] = test system: SCC-4 (Oral Cavity Carcinoma)
Outline: as §1

Compound | combination Emax [1] | combination Emax [2] | combination Emax [3] | combination Emax [4] | combination Emax [5] | combination Emax [6] | combination Emax [7] | combination Emax (AM-38 (Glioblastoma)) | combination Emax [8] | combination Emax [9] | combination Emax (SK-N-SH (Neuroblastoma)) | combination Emax [10] | combination Emax [11] | combination Emax [12] | combination Emax (UACC-257 (Melanoma)) | combination Emax [13] | combination Emax [14] | combination Emax [15] | combination Emax (NCI-H226 (Mesothelioma)) | combination Emax [16]
CN(C)CCCOc1ccc(-c2ccc3ncc4c(c3c2)n(C2CCOCC2)c(=O)n4C)cn1 [AZD0156] + CCN(CCO)CCCOc1ccc2c(Nc3cc(CC(=O)Nc4cccc(F)c4)[nH]n3)ncnc2c1 [AZD2811] (first compound max 1 µM, 7x7, partner max 1 µM) | 0.0974 | 0.327 | 0.142 | 0.127 | 0.101 | 0.142 | 0.0407 | 0.342 | 0.105 | 0.794 | 0.479 | 0.108 | 0.113 | 0.203 | 0.119 | 0.29 | 0.0887 | 0.603 | 0.0682 | 0.336
Cc1c2c(nn1C)CSCc1cc(n(C)n1)CSc1cc(c3ccccc3c1)OCCCc1c(C(=O)O)n(C)c3c-2c(Cl)ccc13 [AZD5991] + CN(C)CCCOc1ccc(-c2ccc3ncc4c(c3c2)n(C2CCOCC2)c(=O)n4C)cn1 [AZD0156] (first compound max 1 µM, 7x7, partner max 1 µM) | 0.257 | 0.259 | 0.638 | 0.3 | 0.174 | 0.183 | 0.314 | 0.677 | 0.427 | 0.314 | 0.454 | 0.217 | 0.215 | 0.659 | 0.277 | 0.375 | 0.245 | 1 | 0.293 | 0.382
CN(CCO)CC[C@H](CSc1ccccc1)Nc1ccc(S(=O)(=O)NC(=O)c2ccc(N3CCC([C@@H](O)c4ccccc4-c4ccc(Cl)cc4)CC3)cc2)cc1S(=O)(=O)C(F)(F)F [AZD4320] + Cc1cc2ncnn2cc1Nc1ncc2c(n1)n(C1CCOCC1)c(=O)n2C [AZD7648] (first compound max 1 µM, 7x7, partner max 10 µM) | 0.488 | 0.136 | 0.305 | 0.964 | 0.0888 | 0.535 | 0.0876 | 0.811 | 0.156 | 0.984 | 0.828 | 0.159 | 0.191 | 0.363 | 0.122 | 0.223 | 0.22 | 0.444 | 0.0544 | 0.737
COc1nnc2ccc(N3CCC(c4ccc(OCCN5CCN(C)C(=O)[C@H]5C)cc4)CC3)nn12 [AZD5153] + C=CCn1c(=O)c2cnc(Nc3ccc(N4CCN(C)CC4)cc3)nc2n1-c1cccc(C(C)(C)O)n1 [AZD1775] (first compound max 1 µM, partner max 1 µM) | 0.348 | 0.684 | 0.785 | 0.677 | 0.529 | 0.522 | 0.754 | 0.353 | 0.852 | 0.918 | 0.645 | 0.613 | 0.584 | 0.737 | 0.359 | 0.549 | 0.956 | 0.956 | 0.448 | 0.568
NC1(C(=O)N[C@@H](CCO)c2ccc(Cl)cc2)CCN(c2ncnc3[nH]ccc23)CC1 [Capivasertib] + COc1nnc2ccc(N3CCC(c4ccc(OCCN5CCN(C)C(=O)[C@H]5C)cc4)CC3)nn12 [AZD5153] (first compound max 10 µM, 7x7, partner max 1 µM) | 0.317 | 0.58 | 0.811 | 0.496 | 0.399 | 0.388 | 0.537 | 0.448 | 0.526 | 0.811 | 0.624 | 0.499 | 0.54 | 0.759 | 0.355 | 0.559 | 0.779 | 1 | 0.402 | 0.678
COc1cccc(OCCCN)c1-c1cc(Nc2cnc(C#N)cn2)n[nH]1 [Prexasertib] + Cc1cc2ncnn2cc1Nc1ncc2c(n1)n(C1CCOCC1)c(=O)n2C [AZD7648] (first compound max 1 µM, 7x7, partner max 10 µM) | 0.489 | 0.429 | 0.573 | 0.823 | 0.68 | 0.557 | 0.819 | 0.845 | 0.784 | 1 | 0.844 | 0.685 | 0.706 | 0.748 | 0.321 | 0.725 | 0.882 | 0.897 | 0.209 | 0.609
COc1nnc2ccc(N3CCC(c4ccc(OCCN5CCN(C)C(=O)[C@H]5C)cc4)CC3)nn12 [AZD5153] + CC1(C)CCC(CN2CCN(c3ccc(C(=O)NS(=O)(=O)c4ccc(NCC5CCOCC5)c([N+](=O)[O-])c4)c(Oc4cnc5[nH]ccc5c4)c3)CC2)=C(c2ccc(Cl)cc2)C1 [Venetoclax] (first compound max 1 µM, 7x7, partner max 1 µM) | 0.495 | 0.526 | 0.723 | 0.348 | 0.473 | 0.322 | 0.568 | 0.232 | 0.522 | 0.539 | 0.623 | 0.538 | 0.545 | 0.718 | 0.305 | 0.376 | 0.379 | 0.945 | 0.438 | 0.389
CC1(C)CCC(CN2CCN(c3ccc(C(=O)NS(=O)(=O)c4ccc(NCC5CCOCC5)c([N+](=O)[O-])c4)c(Oc4cnc5[nH]ccc5c4)c3)CC2)=C(c2ccc(Cl)cc2)C1 [Venetoclax] + CN(C)CCCOc1ccc(-c2ccc3ncc4c(c3c2)n(C2CCOCC2)c(=O)n4C)cn1 [AZD0156] (first compound max 1 µM, 7x7, partner max 1 µM) | 0.217 | 0.21 | 0.204 | 0.525 | 0.276 | 0.105 | 0.181 | 0.209 | 0.119 | 0.78 | 0.394 | 0.164 | 0.156 | 0.246 | 0.177 | 0.285 | 0.494 | 0.169 | 0.212 | 0.358
CN(CCO)CC[C@H](CSc1ccccc1)Nc1ccc(S(=O)(=O)NC(=O)c2ccc(N3CCC([C@@H](O)c4ccccc4-c4ccc(Cl)cc4)CC3)cc2)cc1S(=O)(=O)C(F)(F)F [AZD4320] + C=CCn1c(=O)c2cnc(Nc3ccc(N4CCN(C)CC4)cc3)nc2n1-c1cccc(C(C)(C)O)n1 [AZD1775] (first compound max 1 µM, partner max 1 µM) | 0.462 | 0.716 | 0.708 | 0.978 | 0.776 | 0.718 | 0.916 | 0.834 | 0.828 | 0.997 | 0.934 | 0.371 | 0.79 | 0.659 | 0.103 | 0.726 | 0.953 | 0.831 | 0.407 | 0.872
Cc1c2c(nn1C)CSCc1cc(n(C)n1)CSc1cc(c3ccccc3c1)OCCCc1c(C(=O)O)n(C)c3c-2c(Cl)ccc13 [AZD5991] + C[C@@H](Nc1cc(F)cc(F)c1)c1cc(C(=O)N(C)C)cc2c(=O)cc(N3CCOCC3)oc12 [AZD8186] (first compound max 1 µM, 7x7, partner max 3 µM) | 0.201 | 0.206 | 0.747 | 0.221 | 0.206 | 0.157 | 0.33 | 0.436 | 0.439 | 0.294 | 0.481 | 0.172 | 0.177 | 0.659 | 0.28 | 0.352 | 0.224 | 1 | 0.245 | 0.598
COc1cccc(OCCCN)c1-c1cc(Nc2cnc(C#N)cn2)n[nH]1 [Prexasertib] + O=C(c1cc(Cc2n[nH]c(=O)c3ccccc23)ccc1F)N1CCN(C(=O)C2CC2)CC1 [Olaparib] (first compound max 1 µM, 7x7, partner max 10 µM) | 0.463 | 0.641 | 0.595 | 0.609 | 0.682 | 0.542 | 0.837 | 0.847 | 0.821 | 0.984 | 0.834 | 0.685 | 0.66 | 0.774 | 0.312 | 0.78 | 0.819 | 0.882 | 0.275 | 0.588
CN(C)CCCOc1ccc(-c2ccc3ncc4c(c3c2)n(C2CCOCC2)c(=O)n4C)cn1 [AZD0156] + C=CCn1c(=O)c2cnc(Nc3ccc(N4CCN(C)CC4)cc3)nc2n1-c1cccc(C(C)(C)O)n1 [AZD1775] (first compound max 1 µM, partner max 1 µM) | 0.231 | 0.571 | 0.427 | 0.622 | 0.457 | 0.331 | 0.842 | 0.437 | 0.32 | 0.972 | 0.799 | 0.289 | 0.55 | 0.423 | 0.14 | 0.519 | 0.894 | 0.721 | 0.196 | 0.526
